This passage reports drug sensitivity score results from the supplement of paper PMC11616607.

One experiment relates to JHOS2. Kind of experiment: drug sensitivity score (DSS) from 5-point dose-response viability curve (DSS (area-under-curve based score)); higher = more sensitive (stronger growth inhibition or killing); extreme values may be limits of the assay. Particulars: exposure time: 72 h; concentration range: 5 concentrations over 10,000-fold range. An outline of the steps: (§1)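 Ovarian cancer and normal ovarian cell lines were tested in 384-well plates. Drugs were acoustically dispensed (Echo 550) in DMSO or water at five concentrations spanning a 10,000-fold range, then 1,500 cells per well were added and incubated 3 days at 37°C, 5% CO2. Viability was read by CellTiter-Glo luminescence on a PHERAstar FS. Drug sensitivity score was derived per cell line and drug with Breeze software; higher means more sensitive, zero means no response.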
The molecule `C[C@@]1(C(=O)Nc2ccc(F)nc2)CCCN1c1nc(Nc2cc(C3CC3)n[nH]2)c2cccn2n1` displayed a drug sensitivity score of 3.3.

Regarding `Nc1nc2[nH]cc(CCc3ccc(C(=O)N[C@@H](CCC(=O)O)C(=O)O)cc3)c2c(=O)[nH]1` [Pemetrexed], the drug sensitivity score amounted to 0.

In the case of `CCC(C)n1ncn(-c2ccc(N3CCN(c4ccc(OCC5COC(Cn6cncn6)(c6ccc(Cl)cc6Cl)O5)cc4)CC3)cc2)c1=O` (stereo unspecified) [Itraconazole], the drug sensitivity score was 0.2.

In turn, `NCC(=O)Nc1ccc(-n2nc(C(F)(F)F)cc2-c2ccc3c(ccc4ccccc43)c2)cc1` registered a drug sensitivity score of 1.5.

The molecule `O=C1CN2Cc3c(ccc(Cl)c3Cl)N=C2N1` [Anagrelide] had a drug sensitivity score of 0.

`CN1CCC(COc2cnc(-c3cccc(Cn4nc(-c5cccc(C#N)c5)ccc4=O)c3)nc2)CC1` [Tepotinib] gave a drug sensitivity score of 0.5.

Molecule `Cc1cc2c(F)c(Oc3ncnn4cc(OC[C@@H](C)O)c(C)c34)ccc2[nH]1` [Brivanib] came in with a drug sensitivity score of 0.

Consider `COc1cc2c(NC3CCN(C(C)C)CC3)nc(N3CCC(F)(F)CC3)nc2cc1OCCCN1CCCC1` [UNC0642], for which the drug sensitivity score worked out at 0.

Regarding `Nc1ccn([C@@H]2O[C@H](CO)[C@@H](O)C2(F)F)c(=O)n1` [Gemcitabine], the drug sensitivity score came out at 12.7.

Turning to `Cc1ccc(C(=O)Nc2ccc(CN3CCN(C)CC3)c(C(F)(F)F)c2)cc1C#Cc1cnc2cccnn12` [Ponatinib], the drug sensitivity score is 3.6.

`Oc1ccc2c(c1)CC[C@H](c1ccccc1)[C@@H]2c1ccc(OCCN2CCCC2)cc1` [Lasofoxifene] came in with a drug sensitivity score of 0.

With `NCCNc1ccc(NCCN)c2c1C(=O)c1ccncc1C2=O` [Pixantrone], the drug sensitivity score came out at 0.

As for `COc1cc(Nc2ncc(F)c(Nc3ccc4c(n3)N(COP(=O)(O)O)C(=O)C(C)(C)O4)n2)cc(OC)c1OC` [Fostamatinib], the drug sensitivity score is 0.8.

For the molecule `C=CC(=O)Nc1cccc(Nc2nc(Nc3ccc(N4CCN(C(C)=O)CC4)cc3OC)ncc2C(F)(F)F)c1` [Rociletinib], the drug sensitivity score turned out to be 2.9.

On to `O=C(O)c1ccc(O)c2ncccc12` [IOX-1], for which the drug sensitivity score worked out at 0.

Consider `CCCCCOC(=O)Nc1nc(=O)n([C@@H]2O[C@H](C)[C@@H](O)[C@H]2O)cc1F` [Capecitabine], for which the drug sensitivity score was determined as 0.

For `COc1ccc2[nH]cc(/C=C3\C(=O)Nc4ccc(NC(=O)CCN5CCCCC5)cc43)c2c1`, the drug sensitivity score came out at 5.

For `CNC(=O)c1nn(C)c2c1C(C)(C)Cc1cnc(Nc3ccc(N4CCN(C)CC4)cc3)nc1-2` [Milciclib], the drug sensitivity score was found to be 9.1.

With `C[C@H]1C[C@@H]2[C@H]([C@@H](O)C[C@@]3(C)[C@H]2CC[C@]3(O)C(=O)CO)[C@@]2(C)C=CC(=O)C=C12` [Methylprednisolone], the drug sensitivity score is 0.7.

Consider `CCc1c(C(=O)C(N)=O)c2c(OCC(=O)O)cccc2n1Cc1ccccc1` [Varespladib], for which the drug sensitivity score was 0.1.

In the case of `Cc1ccc(C(=O)Nc2ccc(Oc3cc4cnn(C)c4cc3-c3cn[nH]c3)c(F)c2)c(=O)n1-c1ccc(F)cc1` [Merestinib], the drug sensitivity score turned out to be 2.4.

`Clc1ccccc1C(c1ccccc1)(c1ccccc1)n1cccn1` [TRAM-34] gave a drug sensitivity score of 0.

In the case of `Cc1cc(Nc2cc(N3CCN(C)CC3)nc(/C=C/c3ccccc3)n2)n[nH]1` [ENMD-2076], the drug sensitivity score turned out to be 5.1.

For the molecule `O=C(Nc1cccc(Nc2ncc(Br)c(NCCc3cnc[nH]3)n2)c1)N1CCCC1` [BX-912], the drug sensitivity score turned out to be 2.5.

In turn, `COc1cc(OC)c(/C=C/S(=O)(=O)Cc2ccc(OC)c(NCC(=O)O)c2)c(OC)c1` [Rigosertib] displayed a drug sensitivity score of 11.5.

In the case of `CCS(=O)(=O)c1cccc(-c2cc(C(=O)NC3CCN(C)CC3)c(C)c3[nH]c4ncc(C)cc4c23)c1` [TAK-901], the drug sensitivity score is 1.2.

For `CC(C)NC(=O)COc1cccc(-c2nc(Nc3ccc4[nH]ncc4c3)c3ccccc3n2)c1` [KD025], the drug sensitivity score was found to be 1.2.

For the molecule `COc1cccc(-c2ccc(NC(=O)C3=C(C(=O)O)CCC3)c(F)c2)c1` [Vidofludimus], the drug sensitivity score is 0.1.

Take `C=CCN(/C=C1/C(=O)O[C@H](COC)[C@@]2(C)C1=C(O)C(=O)C1=C2[C@H](OC(C)=O)C[C@]2(C)C(=O)CC[C@@H]12)CC=C` [Sonolisib]: the drug sensitivity score stood at 0.

In turn, `C=C(c1ccc(C(=O)O)cc1)c1cc2c(cc1C)C(C)(C)CCC2(C)C` [Bexarotene] returned a drug sensitivity score of 1.3.

In the case of `CC1CCC(n2c3cnccc3c3cnc(Nc4ccc5c(n4)CCN(C(=O)CO)C5)nc32)CC1` (stereo unspecified) [AMG-925], the drug sensitivity score was found to be 0.5.

A further experiment deals with CAOV3. The experiment is described as above. Particulars: exposure time: 72 h; concentration range: 5 concentrations over 10,000-fold range. An outline of the steps: as §1
Molecule `C[C@@]1(C(=O)Nc2ccc(F)nc2)CCCN1c1nc(Nc2cc(C3CC3)n[nH]2)c2cccn2n1` displayed a drug sensitivity score of 20.2.

The molecule `Nc1nc2[nH]cc(CCc3ccc(C(=O)N[C@@H](CCC(=O)O)C(=O)O)cc3)c2c(=O)[nH]1` [Pemetrexed] had a drug sensitivity score of 14.1.

In turn, `CCC(C)n1ncn(-c2ccc(N3CCN(c4ccc(OCC5COC(Cn6cncn6)(c6ccc(Cl)cc6Cl)O5)cc4)CC3)cc2)c1=O` (stereo unspecified) [Itraconazole] came in with a drug sensitivity score of 0.

For `NCC(=O)Nc1ccc(-n2nc(C(F)(F)F)cc2-c2ccc3c(ccc4ccccc43)c2)cc1`, the drug sensitivity score was found to be 1.

As for `O=C1CN2Cc3c(ccc(Cl)c3Cl)N=C2N1` [Anagrelide], the drug sensitivity score turned out to be 0.

In turn, `CN1CCC(COc2cnc(-c3cccc(Cn4nc(-c5cccc(C#N)c5)ccc4=O)c3)nc2)CC1` [Tepotinib] had a drug sensitivity score of 0.

In the case of `Cc1cc2c(F)c(Oc3ncnn4cc(OC[C@@H](C)O)c(C)c34)ccc2[nH]1` [Brivanib], the drug sensitivity score was found to be 0.

`COc1cc2c(NC3CCN(C(C)C)CC3)nc(N3CCC(F)(F)CC3)nc2cc1OCCCN1CCCC1` [UNC0642] returned a drug sensitivity score of 0.2.

In the case of `Nc1ccn([C@@H]2O[C@H](CO)[C@@H](O)C2(F)F)c(=O)n1` [Gemcitabine], the drug sensitivity score stood at 23.6.

Take `Cc1ccc(C(=O)Nc2ccc(CN3CCN(C)CC3)c(C(F)(F)F)c2)cc1C#Cc1cnc2cccnn12` [Ponatinib]: the drug sensitivity score worked out at 2.4.

`Oc1ccc2c(c1)CC[C@H](c1ccccc1)[C@@H]2c1ccc(OCCN2CCCC2)cc1` [Lasofoxifene] came in with a drug sensitivity score of 0.

`NCCNc1ccc(NCCN)c2c1C(=O)c1ccncc1C2=O` [Pixantrone] returned a drug sensitivity score of 0.

The molecule `COc1cc(Nc2ncc(F)c(Nc3ccc4c(n3)N(COP(=O)(O)O)C(=O)C(C)(C)O4)n2)cc(OC)c1OC` [Fostamatinib] yielded a drug sensitivity score of 0.

`C=CC(=O)Nc1cccc(Nc2nc(Nc3ccc(N4CCN(C(C)=O)CC4)cc3OC)ncc2C(F)(F)F)c1` [Rociletinib] displayed a drug sensitivity score of 7.9.

`O=C(O)c1ccc(O)c2ncccc12` [IOX-1] gave a drug sensitivity score of 1.2.
